In US20240383908A1, “SYNTHESIS AND APPLICATION OF PHOSPHATASE DEGRADER” (HINOVA PHARMACEUTICALS INC., priority 2021, published 2024) one finds DC50 data, which are given here for 25 molecules.

Type in all cases: cell-based
The target in test [1] is T1, SHP2 protein (Homo sapiens, UniProt Q06124).
T1 sequence (Q06124 1-593): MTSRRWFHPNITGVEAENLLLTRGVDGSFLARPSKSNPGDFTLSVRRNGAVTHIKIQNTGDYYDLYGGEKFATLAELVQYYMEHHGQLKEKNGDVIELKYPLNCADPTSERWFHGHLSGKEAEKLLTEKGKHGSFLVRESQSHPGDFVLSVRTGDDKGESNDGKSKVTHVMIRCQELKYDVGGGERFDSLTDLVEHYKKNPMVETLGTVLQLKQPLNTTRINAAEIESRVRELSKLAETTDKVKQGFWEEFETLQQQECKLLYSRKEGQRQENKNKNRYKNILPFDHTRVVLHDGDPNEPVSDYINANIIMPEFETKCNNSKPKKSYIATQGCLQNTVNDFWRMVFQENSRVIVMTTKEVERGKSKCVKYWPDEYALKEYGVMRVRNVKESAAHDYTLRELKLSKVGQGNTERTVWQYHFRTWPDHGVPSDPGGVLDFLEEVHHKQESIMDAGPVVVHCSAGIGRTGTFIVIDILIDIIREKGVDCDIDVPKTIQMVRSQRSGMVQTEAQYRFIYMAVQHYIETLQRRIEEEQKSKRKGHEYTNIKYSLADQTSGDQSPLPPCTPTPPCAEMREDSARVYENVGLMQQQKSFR
The test is described as follows: Degradation activity on SHP2 protein in NCI-H358 cells (Western blot, DC50). Also on record: endogenous in cells. As to conditions: read-out: Degradation activity for differenct cell lines NCI-H358 (DC50). How it is done: (1) MV-411 cells were cultured in the cell culture medium, and then well-growing cells were selected and inoculated in a 12-well plate, with 1 mL/well and 1×10^6 cells/well. The plate was incubated overnight in a 5% CO2 cell incubator at 37° C.
(2) 10 mM storage solution of each drug was prepared using dimethylsulfoxide (DMSO). The stock solution was diluted gradually with DMSO before use, and then 1 μL of the compound solution was added to the cell culture well (to ensure that the DMSO concentration in the culture system was […]), so that the final drug concentration is 100 nM, 10 nM, 3 nM, 1 nM, 0.3 nM, and 0.1 nM. Two wells were set for each concentration. The plate was gently shaken and mixed. Additionally, negative control wells (containing an equal amount of DMSO) and positive control wells were included.
(3) After 24 hours of cultivation, the cells were lysed using RIPA cell lysate, and the proteins were extracted. The protein concentration was measured using a BCA assay kit. 5× concentrated protein buffer was loaded, heated at 100° C. for 5 min, and then the sample was stored at −20° C.
(4) For each well, 30 μg of protein was loaded to polyacrylamide gel for electrophoresis.
(5) The protein was transferred from polyacrylamide gel to PVDF membrane, and sealed at room temperature with 5% skimmed milk for 1 h, which was then incubated with the primary antibodies (Anti-SHP2 rabbit mAb and Anti-GAPDH rabbit mAb) at 4° C. overnight. The membrane was washed three times with TBST solution, 10 minutes for each time. After that, the membrane was incubated with the secondary antibodies (horseradish peroxidase labeled goat anti-rabbit IgG) at room temperature for 2 h, and then washed three times with TBST solution, 10 minutes for each time, followed by exposure.
(6) The images were analyzed with Image J grayscale, and the degradation ratio of protein bands in the test group was calculated, based on the negative control group (DMSO) (100%).
(7) Using the Dose-response-inhibition equation in the data processing software GraphPad Prism 8, the DC50 value was obtained (which represents the drug concentration corresponding to 50% degradation of the target protein).
Using similar methods and different cell lines, the degradation activity of the compound according to the present invention on SHP2 protein of different cell lines was tested under suitable culture conditions.
(In general: In western blotting, separated proteins are transferred to a membrane and probed.)

Test [2] concerns the target T1, SHP2 protein. The test is described as follows: Degradation activity on SHP2 protein in MIA Paca-2 cells (Western blot, DC50). The settings on record: read-out: Degradation activity for differenct cell lines MIA Paca-2 (DC50). Details: endogenous in cells; host or cells: MIA Paca-2 cells. The procedure, abridged: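 DC50 is the concentration degrading 50% of SHP2 relative to DMSO control. It was derived by fitting Western blot band densitometry (anti-SHP2, GAPDH reference) from cells exposed 24 h to 0.1–100 nM compound in 0.1% DMSO.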

The target in test [3] is T1, SHP2 protein. The test is described as follows: Degradation activity on SHP2 protein in MV-411 cells (Western blot, DC50). Details: endogenous in cells. As to conditions: MV411 cells, 24 hours, read-out: Degradation activity for differenct cell lines MV411 (DC50). In a few lines: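 Western blot of SHP2 (GAPDH loading control, 30 μg protein/lane) in lysates of MV-411 cells exposed 24 h to final compound concentrations of 100, 10, 3, 1, 0.3 and 0.1 nM (0.1% DMSO). Degradation relative to DMSO set at 100%; DC50 derived by curve fitting.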

Structures are written as SMILES.

One may read the DC50 as the concentration giving 50% degradation.

`CC1(N)CCN(c2cnc(Sc3cccc(NC(=O)CCCCCCCCN4C5CCC4CC(c4ccc(C(=O)NCc6ccc7c(c6)CN(C6CCC(=O)NC6=O)C7=O)nn4)C5)c3)cn2)CC1` (single isomer, unassigned) [Compound 232]: the DC50 in test [1] and in test [2] was below 100 nM each time.

In the case of `CC1(N)CCN(c2cnc(Sc3cccc(NC(=O)CCCCCCCCN4C5CCC4CC(c4ccc(C(=O)NCc6ccc7c(c6)CN(C6CCC(=O)NC6=O)C7=O)nn4)C5)c3)cn2)CC1` (single isomer, unassigned) [Compound 233], the DC50 in test [1] was below 100 nM. Consider `CC1(N)CCN(c2cnc(Sc3cccc(NC(=O)CCCCCCCCN4C5CCC4CC(c4ccc(C(=O)NCc6ccc7c(c6)CN(C6CCC(=O)NC6=O)C7=O)nn4)C5)c3)cn2)CC1` (single isomer, unassigned) [Compound 234], for which the DC50 in test [1] was below 100 nM. Still for that read-out and setting: as for `CC1(N)CCN(c2cnc(Sc3cccc(NC(=O)CCCCCCCOC4CCN(c5ccc(C(=O)NCc6ccc7c(c6)CN(C6CCC(=O)NC6=O)C7=O)nn5)CC4F)c3)cn2)CC1` (stereo not shown) [Compound 147], the figure is below 100 nM.

Take `CC1(N)CCN(c2cnc(Sc3cccc(NC(=O)CCCCCCCO[C@@H]4CN(c5ccc(C(=O)NCc6ccc7c(c6)CN(C6CCC(=O)NC6=O)C7=O)nn5)CC4(F)F)c3)cn2)CC1` (stereo partly shown) [Compound 178]: the 50% degradation concentration (DC50) in test [3] and in test [2] was below 100 nM each time. As to `CC1(N)CCN(c2cnc(Sc3cccc(NC(=O)CCCCCCN4CC5(CCN(c6cnc(C(=O)NCc7ccc8c(c7)CN(C7CCC(=O)NC7=O)C8=O)cn6)C5)C4)c3)cn2)CC1` (stereo not shown) [Compound 179], the DC50 in test [3] is below 100 nM; in test [2] it was above 1000 nM.

As for `CC1(N)CCN(c2cnc(Sc3cccc(NC(=O)CCCCCCOC4CC5CN(c6ccc(C(=O)NCc7ccc8c(c7)CN(C7CCC(=O)NC7=O)C8=O)nn6)CC5C4)c3)cn2)CC1` (stereo not shown) [Compound 183], the DC50 in test [3] is below 100 nM; in test [2], above 1000 nM. The corresponding values for `CC1(N)CCN(c2cnc(Sc3cccc(NC(=O)CCCCCCCCCCNc4ccc(C(=O)NCc5ccc6c(c5)CN(C5CCC(=O)NC5=O)C6=O)nn4)c3)cn2)CC1` (stereo not shown) [Compound 185] are below 100 nM and 100 to 1000 nM.

For the molecule `CC1(N)CCN(c2cnc(Sc3cccc(NC(=O)CCCCCOc4ccc(C5CC5C(=O)NCc5ccc6c(c5)C(=O)N(C5CCC(=O)NC5=O)C6)cc4)c3)cn2)CC1` (stereo not shown) [Compound 189, 2-(4-((6-((3-((5-(4-amino-4-methylpyridin-1-yl)pyrazin-2-yl)thio)phenyl)amino)-6-oxohexyl)oxy)phenyl)-N-((2-(2,6-dioxopiperidin-3-yl)-3-oxoisoindol-5-yl)methyl)cyclopropane-1-formamide], the DC50 in test [3] was below 100 nM; in test [2], above 1000 nM. Turning to `NC1(CO)CCN(c2cnc(Sc3cccc(NC(=O)CCCCCCN4CC5(CCN(c6ccc(C(=O)NCc7ccc8c(c7)CN(C7CCC(=O)NC7=O)C8=O)nc6)C5)C4)c3)cn2)CC1` (stereo not shown) [Compound 190], the DC50 in test [3] was 100 to 1000 nM; in test [2], above 1000 nM. Regarding `CC1(N)CCN(c2cnc(Sc3cccc(NC(=O)CCCCCOc4ccc(C5CCC(C(=O)NCc6ccc7c(c6)CN(C6CCC(=O)NC6=O)C7=O)CC5)cc4)c3)cn2)CC1` (stereo not shown) [Compound 191], the DC50 was below 100 nM in test [3] and above 1000 nM in test [2]. Taken in the same sequence, the figures for `CC1(N)CCN(c2cnc(Sc3cccc(NC(=O)CCCCCOc4ccc(C5CCC(C(=O)NCc6ccc7c(c6)CN(C6CCC(=O)NC6=O)C7=O)CC5)cc4)c3)cn2)CC1` (stereo not shown) [Compound 192] were below 100 nM and above 1000 nM. As to `COCC1(N)CCN(c2cnc(Sc3cccc(NC(=O)CCCCCCN4CC5(CCN(c6ccc(C(=O)NCc7ccc8c(c7)CN(C7CCC(=O)NC7=O)C8=O)nn6)C5)C4)c3)cn2)CC1` (stereo not shown) [Compound 199], the DC50 in test [3] and in test [2] was below 100 nM each time. Consider `Cc1cc(N2CCC3(CN(CCCCCCC(=O)Nc4cccc(Sc5cnc(N6CCC(N)(CO)CC6)cn5)c4)C3)C2)cnc1C(=O)NCc1ccc2c(c1)CN(C1CCC(=O)NC1=O)C2=O` (stereo not shown) [Compound 208], for which the figures for the DC50 in test [3] and in test [2] were below 100 nM and above 1000 nM, respectively.

In the case of `CC1(N)CCN(c2cnc(Sc3cccc(NC(=O)CCCCCC=C4CC5(CCN(c6ccc(C(=O)NCc7ccc8c(c7)CN(C7CCC(=O)NC7=O)C8=O)nn6)CC5)C4)c3)cn2)CC1` (stereo not shown) [Compound 209], the DC50 is below 100 nM in test [3] and above 1000 nM in test [2]. The corresponding values for `COc1nc(N2CCC3(CN(CCCCCCC(=O)Nc4cccc(Sc5cnc(N6CCC(C)(N)CC6)cn5)c4)C3)C2)ccc1C(=O)NCc1ccc2c(c1)CN(C1CCC(=O)NC1=O)C2=O` (stereo not shown) [Compound 211] are below 100 nM and below 100 nM. Regarding `CC1(N)CCN(c2cnc(Sc3cccc(NC(=O)CCCCCCN4CC5(CCC(c6ccc(C(=O)NCc7ccc8c(c7)CN(C7CCC(=O)NC7=O)C8=O)nc6)CC5)C4)c3)cn2)CC1` (stereo not shown) [Compound 216], the DC50 in test [1] and in test [2] was below 100 nM each time. Regarding `CC1(N)CCN(c2cnc(Sc3cccc(NC(=O)CCCCCCN4CC5(CC=C(c6ccc(C(=O)NCc7ccc8c(c7)CN(C7CCC(=O)NC7=O)C8=O)nc6)CC5)C4)c3)cn2)CC1` (stereo not shown) [Compound 217], the 50% degradation concentration (DC50) in test [1] and in test [2] was below 100 nM each time.

`CC1(N)CCN(c2cnc(Sc3cccc(NC(=O)CCCCCCCCN4CCC(c5ccc(C(=O)NCc6ccc7c(c6)CN(C6CCC(=O)NC6=O)C7=O)nn5)CC4)c3)cn2)CC1` (stereo not shown) [Compound 218]: the DC50 in test [1] and in test [2] was below 100 nM throughout. For the molecule `CC1(N)CCN(c2cnc(Sc3cccc(NC(=O)CCCCCCCCN4C5C=C(c6ccc(C(=O)NCc7ccc8c(c7)CN(C7CCC(=O)NC7=O)C8=O)nn6)CC4CC5)c3)cn2)CC1` (stereo not shown) [Compound 219], the DC50 in test [1] and in test [2] was below 100 nM in each case. Consider `Cc1ncsc1-c1ccc([C@H](C)NC(=O)[C@@H]2C[C@@H](O)CN2C(=O)[C@@H](NC(=O)c2cnc(N3CCN(CCCCCC(=O)Nc4cccc(Sc5cnc(N6CCC(C)(N)CC6)cn5)c4)CC3)nc2)C(C)(C)C)cc1` [Compound 220], for which the DC50 in test [1] and in test [2] was below 100 nM throughout. Regarding `CC1(N)CCN(c2cnc(Sc3cccc(NC(=O)CCCCCCCCN4CCN(c5ccc(C(=O)NCc6ccc7c(c6)CN(C6CCC(=O)NC6=O)C7=O)nn5)CC4C(F)(F)F)c3)cn2)CC1` (stereo not shown) [Compound 225], the DC50 in test [1] was below 100 nM.

In the case of `CC1(N)CCN(c2cnc(Sc3cccc(NC(=O)CCCCCCCCN4CCc5cc(C(=O)NCc6ccc7c(c6)CN(C6CCC(=O)NC6=O)C7=O)cnc5C4)c3)cn2)CC1` (stereo not shown) [Compound 235], the DC50 in test [1] was below 100 nM. Same read-out and setting: as for `CC1(N)CCN(c2cnc(Sc3cccc(NC(=O)CCCCOc4ccc(N5CCN(c6ccc(C(=O)NCc7ccc8c(c7)CN(C7CCC(=O)NC7=O)C8=O)nn6)CC5)cc4)c3)cn2)CC1` (stereo not shown) [Compound 236], the figure is below 100 nM. The same measure, in the same setting: as for `Cc1ncsc1-c1ccc([C@H](C)NC(=O)[C@@H]2C[C@@H](O)CN2C(=O)[C@@H](NC(=O)c2cnc(N3CC(OCC(=O)Nc4cccc(Sc5cnc(N6CCC(C)(N)CC6)cn5)c4)C3)nc2)C(C)(C)C)cc1` [Compound 240], the figure is above 1000 nM.
